Assay results as given in patent US20240025856A1, “1,2,3,4-TETRAHYDROQUINOLINE DERIVATIVES AS INHIBITORS OF THE YAP/TAZ-TEAD ACTIVATION FOR TREATING CANCER” (KATHOLIEKE UNIVERSITEIT LEUVEN, priority 2020, published 2024).

tested on: YAP/TAZ-TEAD transcription; test: Reporter gene assay for measuring the inhibition of YAP/TAZ-TEAD transcription (TEAD-responsive element luciferase reporter in Hek293T cells); format: cell-based; details: Hek293T cells transiently transfected with TEAD-responsive element luciferase reporter; 24 hours incubation
Method: Hek293T cells are cultured in DMEM supplemented with 10% fetal bovine serum, Sodium pyruvate, Sodium bicarbonate, L-glutamine. The cells are harvested and transiently transfected with TEAD-responsive element luciferase reporter. Transfected cells are plated in 384-wells plate containing pre-diluted compounds. After 24 hours incubation at 37° C./5% CO2, assay plates were cooled down to RT and levelled to an equal volume per well, prior to the addition of 25 uL luciferase substrate SteadyLite (Perkin Elmer)/well. The plate was shaken for 10 min at 600 rpm, centrifuged for 1 min at 500 rpm and measured with an Envision reader (PerkinElmer). The amount of relative light units produced by the TEAD reporter is used to calculated percent of inhibition. The percent of reporter inhibition was calculated in the presence of a positive control inhibitor (100% inhibition) versus a condition with the presence of the vehicle basal activity of the reporter (0% inhibition). The ability of a test compound to inhibit this activity was determined as: Percentage inhibition=[[…]((RLU determined in the presence of vehicle−RLU determined for sample with test compound present) divided by (RLU determined in the presence of vehicle−RLU determined for sample with positive control inhibitor))]*100
The activities of example compounds tested are depicted in the table below. The activity ranges A, B and C refer to IC50 values in the reporter gene assay as follows: “A”: IC50<1 μM; “B”: 1 μM≤IC50≤20 μM and “C”: IC50>20 μM; NT=not tested.

Row | IC50 | Structure (SMILES)
1 | 1 to 20 µM | OCCCNC1Cc2ccccc2N(c2ccc(C(F)(F)F)cc2)C1 (single isomer, unassigned) [045-En1, (R)- or (S)-3-((1-(4-(trifluoromethyl)phenyl)-1,2,3,4-tetrahydroquinolin-3-yl)amino)propan-1-ol]
2 | 1 to 20 µM | FC(F)(F)c1ccc(N2CC(C3CC(Br)=NO3)Cc3ccccc32)cc1 (single isomer, unassigned) [Cpd. No. 194(Dia2)-En1, 3-bromo-5-(1-(4-(trifluoromethyl)phenyl)-1,2,3,4-tetrahydroquinolin-3-yl)-4,5-dihydroisoxazole]
3 | < 1 µM | FC(F)(F)c1ccc(N2CC(C3CC(Br)=NO3)Cc3ccccc32)cc1 (single isomer, unassigned) [Cpd. No. 194(Dia2)-En2, 3-bromo-5-(1-(4-(trifluoromethyl)phenyl)-1,2,3,4-tetrahydroquinolin-3-yl)-4,5-dihydroisoxazole]

same assay, conditions: Homo sapiens, HEK-293T, 24 h, Hek293T cells transiently transfected with TEAD-responsive element luciferase reporter; 24 hours incubation

Row | Structure (SMILES) | IC50
4 | C=CC(=O)NCC1Cc2ccccc2N(c2ccc(Cl)cc2)C1 (stereo not drawn) [compound 089, N-((1-(4-chlorophenyl)-1,2,3,4-tetrahydroquinolin-3-yl)methyl)acrylamide] | < 1 µM
5 | C=CC(=O)NC1Cc2ccccc2N(c2cccc(F)c2F)C1 (stereo not drawn) [compound 025, N-(1-(2,3-difluorophenyl)-1,2,3,4-tetrahydroquinolin-3-yl)acrylamide] | < 1 µM
6 | C=CC(=O)NCC1Cc2ccccc2N(c2ccc(-c3ccccc3)cc2)C1 (stereo not drawn) [compound 092, N-((1-([1,1′-biphenyl]-4-yl)-1,2,3,4-tetrahydroquinolin-3-yl)methyl)acrylamide] | < 1 µM
7 | C=CC(=O)NC1Cc2c(CN)cccc2N(c2ccc(C(F)(F)F)cc2)C1 (stereo not drawn) [compound 138, N-(5-(aminomethyl)-1-(4-(trifluoromethyl)phenyl)-1,2,3,4-tetrahydroquinolin-3-yl)acrylamide] | < 1 µM
8 | C=CC(=O)NC1Cc2ccccc2N(c2ccc(C(=O)NC)cc2)C1 (stereo not drawn) [compound 014, 4-(3-acrylamido-3,4-dihydroquinolin-1(2H)-yl)-N-methylbenzamide] | 1 to 20 µM
9 | C=CC(=O)NC1Cc2ccccc2N(c2ccc(C(F)(F)F)cc2)C1 (single isomer, unassigned) [001-En1] | < 1 µM
10 | N#CCCNC1Cc2ccccc2N(c2ccc(C(F)(F)F)cc2)C1 (stereo not drawn) [compound 053, 3-((1-(4-(trifluoromethyl)phenyl)-1,2,3,4-tetrahydroquinolin-3-yl)amino)propanenitrile] | 1 to 20 µM
11 | C=CC(=O)NCC1Cc2ccccc2N(c2ccc(C)cc2C)C1 (stereo not drawn) [compound 116, N-((1-(2,4-dimethylphenyl)-1,2,3,4-tetrahydroquinolin-3-yl)methyl)acrylamide] | < 1 µM
12 | C=CC(=O)NC1Cc2ccccc2N(c2ccc(F)cc2F)C1 (stereo not drawn) [compound 036, N-(1-(2,4-difluorophenyl)-1,2,3,4-tetrahydroquinolin-3-yl)acrylamide] | < 1 µM
13 | C=CC(=O)NCC1Cc2ccccc2N(c2ccc3cc[nH]c3c2)C1 (stereo not drawn) [compound 104, N-((1-(1H-indol-6-yl)-1,2,3,4-tetrahydroquinolin-3-yl)methyl)acrylamide] | < 1 µM
14 | C=CC(=O)N(CCOC)C1Cc2ccccc2N(c2ccc(C(F)(F)F)cc2)C1 (stereo not drawn) [compound 133, N-(2-methoxyethyl)-N-(1-(4-(trifluoromethyl)phenyl)-1,2,3,4-tetrahydroquinolin-3-yl)acrylamide] | 1 to 20 µM
15 | C=CC(=O)NCC1Cc2ccccc2N(c2ccc(C(F)(F)F)cn2)C1 (stereo not drawn) [compound 095] | < 1 µM
16 | C=CC(=O)NC1Cc2ccccc2N(c2cccc(Cl)c2)C1 (stereo not drawn) [compound 032, N-(1-(3-chlorophenyl)-1,2,3,4-tetrahydroquinolin-3-yl)acrylamide] | < 1 µM
17 | C=CC(=O)NCC1Cc2ccccc2N(c2cccc(-c3ccccc3)c2)C1 (stereo not drawn) [compound 093, N-((1-([1,1′-biphenyl]-3-yl)-1,2,3,4-tetrahydroquinolin-3-yl)methyl)acrylamide] | > 20 µM
18 | C=CC(=O)NCC1Cc2ccccc2N(c2ccc(S(F)(F)(F)(F)F)cc2)C1 (stereo not drawn) [compound 117, N-((1-(4-(pentafluoro-λ^6-sulfaneyl)phenyl)-1,2,3,4-tetrahydroquinolin-3-yl)methyl)acrylamide] | < 1 µM
19 | CC(C)=CC(=O)NC1Cc2ccccc2N(c2ccc(C(F)(F)F)cc2)C1 (stereo not drawn) [compound 038, 3-methyl-N-(1-(4-(trifluoromethyl)phenyl)-1,2,3,4-tetrahydroquinolin-3-yl)but-2-enamide] | 1 to 20 µM
20 | C=CC(=O)NC1Cc2c(Nc3cccnc3)cccc2N(c2ccc(C(F)(F)F)cc2)C1 (stereo not drawn) [compound 070, N-(5-(pyridin-3-ylamino)-1-(4-(trifluoromethyl)phenyl)-1,2,3,4-tetrahydroquinolin-3-yl)acrylamide] | < 1 µM
21 | C=CC(=O)NC1Cc2ccccc2N(c2cccc(OC)c2)C1 (stereo not drawn) [compound 006, N-(1-(3-methoxyphenyl)-1,2,3,4-tetrahydroquinolin-3-yl)acrylamide] | < 1 µM
22 | C=CC(=O)NC1Cc2ccccc2N(c2ccc(Cl)cc2)C1 (stereo not drawn) [compound 033, N-(1-(4-chlorophenyl)-1,2,3,4-tetrahydroquinolin-3-yl)acrylamide] | < 1 µM
23 | C=CC(=O)NCC1Cc2ccccc2N(CC2CCCCC2)C1 (stereo not drawn) [compound 179, N-((1-(cyclohexylmethyl)-1,2,3,4-tetrahydroquinolin-3-yl)methyl)acrylamide] | < 1 µM
24 | C=CC(=O)NCC1Cc2ccccc2N(C(=O)C2CCCCC2)C1 (stereo not drawn) [compound 180, N-((1-(cyclohexanecarbonyl)-1,2,3,4-tetrahydroquinolin-3-yl)methyl)acrylamide] | < 1 µM
25 | C=CC(=O)NC1Cc2c(NC(=O)OC(C)(C)C)cccc2N(c2ccc(C(F)(F)F)cc2)C1 (stereo not drawn) [compound 074, tert-butyl (3-acrylamido-1-(4-(trifluoromethyl)phenyl)-1,2,3,4-tetrahydroquinolin-5-yl)carbamate] | < 1 µM
26 | C=CC(=O)NCC1Cc2ccccc2N(c2ccc(F)cc2F)C1 (stereo not drawn) [compound 102, N-((1-(2,4-difluorophenyl)-1,2,3,4-tetrahydroquinolin-3-yl)methyl)acrylamide] | < 1 µM

Second part, the compound after the results:

Row | IC50 | Structure (SMILES)
27 | 1 to 20 µM | NC1Cc2ccccc2N(c2ccc(C(F)(F)F)cc2)C1 (stereo not drawn) [171 (Int-3), 1-(4-(trifluoromethyl)phenyl)-1,2,3,4-tetrahydroquinolin-3-amine]
28 | 1 to 20 µM | CCC(=O)NC1Cc2c(Nc3ccccc3)cccc2N(c2ccc(C(F)(F)F)cc2)C1 (stereo not drawn) [compound 071, N-(5-(phenylamino)-1-(4-(trifluoromethyl)phenyl)-1,2,3,4-tetrahydroquinolin-3-yl)propionamide]
29 | < 1 µM | C=CC(=O)NC1Cc2ccccc2N(c2cccc(C(C)C)c2)C1 (stereo not drawn) [compound 005, N-(1-(3-isopropylphenyl)-1,2,3,4-tetrahydroquinolin-3-yl)acrylamide]
30 | < 1 µM | C=CC(=O)N(C)C1Cc2ccccc2N(c2ccc(C(F)(F)F)cc2)C1 (stereo not drawn) [compound 132, N-methyl-N-(1-(4-(trifluoromethyl)phenyl)-1,2,3,4-tetrahydroquinolin-3-yl)acrylamide]
31 | < 1 µM | C=CC(=O)NCC1Cc2ccccc2N(c2ccc(C(F)(F)F)nc2)C1 (stereo not drawn) [compound 094, N-((1-(6-(trifluoromethyl)pyridin-3-yl)-1,2,3,4-tetrahydroquinolin-3-yl)methyl)acrylamide]
32 | < 1 µM | C=CC(=O)NC1Cc2ccccc2N(c2cccc(F)c2)C1 (stereo not drawn) [compound 024, N-(1-(3-fluorophenyl)-1,2,3,4-tetrahydroquinolin-3-yl)acrylamide]
33 | < 1 µM | C=CC(=O)NCC1CCc2ccccc2N1Cc1cccc(C(F)(F)F)c1 (stereo not drawn) [compound 190, N-((1-(3-(trifluoromethyl)benzyl)-1,2,3,4-tetrahydroquinolin-2-yl)methyl)acrylamide]
34 | < 1 µM | C=CC(=O)NCC1Cc2ccccc2N(c2ccc(SC(F)(F)F)cc2)C1 (stereo not drawn) [compound 114, N-((1-(4-((trifluoromethyl)thio)phenyl)-1,2,3,4-tetrahydroquinolin-3-yl)methyl)acrylamide]
35 | < 1 µM | C=CC(=O)NCC1Cc2ccccc2N(c2cccc(F)c2F)C1 (stereo not drawn) [compound 109, N-((1-(2,3-difluorophenyl)-1,2,3,4-tetrahydroquinolin-3-yl)methyl)acrylamide]
36 | < 1 µM | N#CCNCC1Cc2ccccc2N(c2ccc(C(F)(F)F)cc2)C1 (stereo not drawn) [compound 127, 2-(((1-(4-(trifluoromethyl)phenyl)-1,2,3,4-tetrahydroquinolin-3-yl)methyl)amino)acetonitrile]
37 | > 20 µM | O=C(O)CNC1Cc2ccccc2N(c2ccc(C(F)(F)F)cc2)C1 (stereo not drawn) [compound 044, (1-(4-(trifluoromethyl)phenyl)-1,2,3,4-tetrahydroquinolin-3-yl)glycine]
38 | > 20 µM | C=CC(=O)NCC1Cc2ccccc2N(c2ccc(C(=O)NC)cc2)C1 (stereo not drawn) [compound 100, 4-(3-(acrylamidomethyl)-3,4-dihydroquinolin-1(2H)-yl)—N-methylbenzamide]
39 | < 1 µM | C=CC(=O)NCC1Cc2ccccc2N(c2ccc(F)cc2)C1 (stereo not drawn) [compound 097, N-((1-(4-fluorophenyl)-1,2,3,4-tetrahydroquinolin-3-yl)methyl)acrylamide]
